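Assay format: 96-well plates, 48-hour exposure. GI50 is the concentration that inhibits growth by half. TGI: concentration producing complete growth inhibition.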
Columns and labels:
Test in all cases: DTP human tumour cell line panel, 48 h
[1] = tested on: 786-0 renal
[2] = tested on: A498 renal
[3] = tested on: A549 NSCLC
[4] = tested on: ACHN renal
[5] = tested on: BT-549 breast
[6] = tested on: CAKI-1 renal
[7] = tested on: CCRF-CEM leukemia
[8] = tested on: COLO 205 colon
[9] = tested on: DU-145 prostate
[10] = tested on: EKVX NSCLC
[11] = tested on: HCC-2998 colon
[12] = tested on: HCT-116 colon
[13] = tested on: HCT-15 colon
[14] = tested on: HL-60(TB) leukemia
[15] = tested on: HOP-62 NSCLC
[16] = tested on: HOP-92 NSCLC
[17] = tested on: HS 578T breast
[18] = tested on: HT29 colon
[19] = tested on: IGROV1 ovarian
[20] = tested on: K-562 leukemia
[21] = tested on: KM12 colon
[22] = tested on: LOX IMVI melanoma
[23] = tested on: M14 melanoma
[24] = tested on: MALME-3M melanoma
[25] = tested on: MCF7 breast
[26] = tested on: MDA-MB-231 breast
[27] = tested on: MDA-MB-435
[28] = tested on: MOLT-4 leukemia
[29] = tested on: NCI-H226 lung
[30] = tested on: NCI-H23 lung
[31] = tested on: NCI-H460 lung
[32] = tested on: NCI-H522 lung
[33] = tested on: NCI/ADR-RES ovarian
[34] = tested on: OVCAR-3 ovarian
[35] = tested on: OVCAR-4 ovarian
[36] = tested on: OVCAR-5 ovarian
[37] = tested on: OVCAR-8 ovarian
[38] = tested on: PC-3 prostate
[39] = tested on: RPMI-8226 leukemia
[40] = tested on: RXF 393 renal
[41] = tested on: SF-268 CNS
[42] = tested on: SF-295 CNS
[43] = tested on: SF-539 CNS
[44] = tested on: SK-MEL-2 melanoma
[45] = tested on: SK-MEL-28 melanoma
[46] = tested on: SK-MEL-5 melanoma
[47] = tested on: SK-OV-3 ovarian
[48] = tested on: SN12C renal
[49] = tested on: SNB-19 CNS
[50] = tested on: SNB-75 CNS
[51] = tested on: SR leukemia
[52] = tested on: SW-620 colon
[53] = tested on: TK-10 renal
[54] = tested on: U251 CNS
[55] = tested on: UACC-257 melanoma
[56] = tested on: UACC-62 melanoma
[57] = tested on: UO-31 renal

Structure (SMILES): COC(=O)[C@@H](C[C@H](Cc1ccccc1)NC(=O)c1csc([C@@H](C[C@H](C(C)C)N(C)C(=O)[C@@H](NC(=O)[C@H]2CCCCN2C)C(C)C)OC(C)=O)n1)NC(=O)OCc1ccccc1
- GI50 [1]: 1.65 nM
- TGI [1]: > 8330 nM
- GI50 [2]: 1.1 nM
- TGI [2]: 10.4 nM
- GI50 [3]: 1.86 nM
- TGI [3]: > 8330 nM
- GI50 [4]: 2.93 nM
- TGI [4]: > 8330 nM
- GI50 [5]: 1.49 nM
- TGI [5]: 83.9 nM
- GI50 [6]: 1.66 nM
- TGI [6]: > 8330 nM
- GI50 [7]: < 0.833 nM
- TGI [7]: > 7920 nM
- GI50 [8]: < 0.833 nM
- GI50 [9]: < 0.833 nM
- GI50 [10]: 17.5 nM
- TGI [10]: > 8330 nM
- GI50 [11]: < 0.833 nM
- TGI [11]: > 2890 nM
- GI50 [12]: < 0.833 nM
- GI50 [13]: 4.54 nM
- TGI [13]: > 8330 nM
- GI50 [14]: < 0.833 nM
- TGI [14]: 1.62 nM
- GI50 [15]: 1.12 nM
- TGI [15]: > 8330 nM
- GI50 [16]: 2.36 nM
- TGI [16]: > 8330 nM
- GI50 [17]: < 0.833 nM
- TGI [17]: > 3550 nM
- GI50 [18]: < 0.833 nM
- TGI [18]: > 8330 nM
- GI50 [19]: < 0.833 nM
- TGI [19]: > 7680 nM
- GI50 [20]: < 0.833 nM
- TGI [20]: > 3180 nM
- GI50 [21]: < 0.833 nM
- TGI [21]: > 8330 nM
- GI50 [22]: < 0.833 nM
- TGI [22]: > 8330 nM
- GI50 [23]: < 0.833 nM
- TGI [23]: 412 nM
- GI50 [24]: < 0.833 nM
- TGI [24]: 2680 nM
- GI50 [25]: < 0.833 nM
- TGI [25]: > 8330 nM
- GI50 [26]: 1.31 nM
- TGI [26]: > 6730 nM
- GI50 [27]: < 0.833 nM
- TGI [27]: < 0.833 nM
- GI50 [28]: < 0.833 nM
- TGI [28]: > 8330 nM
- GI50 [29]: 1.68 nM
- TGI [29]: 136 nM
- GI50 [30]: 1.19 nM
- TGI [30]: > 8330 nM
- GI50 [31]: < 0.833 nM
- TGI [31]: > 8330 nM
- GI50 [32]: < 0.833 nM
- TGI [32]: 40 nM
- GI50 [33]: 43.9 nM
- TGI [33]: > 1690 nM
- GI50 [34]: < 0.833 nM
- GI50 [35]: 7.17 nM
- TGI [35]: > 8330 nM
- GI50 [36]: 5.38 nM
- TGI [36]: > 8330 nM
- GI50 [37]: < 0.833 nM
- TGI [37]: > 8330 nM
- GI50 [38]: < 0.833 nM
- TGI [38]: > 8330 nM
- GI50 [39]: < 0.833 nM
- TGI [39]: 2490 nM
- GI50 [40]: 0.948 nM
- TGI [40]: > 8330 nM
- GI50 [41]: 1.37 nM
- TGI [41]: > 8330 nM
- GI50 [42]: 1.33 nM
- TGI [42]: > 8330 nM
- GI50 [43]: < 0.833 nM
- TGI [43]: 3.85 nM
- GI50 [44]: < 0.833 nM
- TGI [44]: 3450 nM
- GI50 [45]: 906 nM
- TGI [45]: 2390 nM
- GI50 [46]: < 0.833 nM
- TGI [46]: 38.6 nM
- GI50 [47]: 2.65 nM
- TGI [47]: > 8330 nM
- GI50 [48]: 1.46 nM
- TGI [48]: > 8330 nM
- GI50 [49]: < 0.833 nM
- TGI [49]: > 8330 nM
- GI50 [50]: < 0.833 nM
- TGI [50]: > 8330 nM
- GI50 [51]: < 0.833 nM
- TGI [51]: > 3400 nM
- GI50 [52]: < 0.833 nM
- TGI [52]: > 8330 nM
- GI50 [53]: 107 nM
- TGI [53]: > 8330 nM
- GI50 [54]: < 0.833 nM
- TGI [54]: > 2650 nM
- GI50 [55]: 30.9 nM
- TGI [55]: 2590 nM
- GI50 [56]: < 0.833 nM
- TGI [56]: > 8330 nM
- GI50 [57]: 11.3 nM
- TGI [57]: > 8330 nM

Source: PubChem BioAssay (NCI)
